Where “and” joins values, the source holds several entries; their conditions need not be identical. Identical values can stand only once.
Tested on: Swiss mice, Sarcoma 180 sc, mean tumor weight T/C
Test: NCI In Vivo Anticancer Drug Screen. Data for tumor model Sarcoma 180 (subcutaneous) in Swiss mice
Settings: endpoint: mean tumor weight, higher = larger tumour
Summary of the method: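 Mice bearing transplanted tumors were treated with compound, and survival or tumor size was measured. Values are expressed as the treated-group measurement (T) divided by the vehicle-treated control measurement (C).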

[1] = dose: 500.0 mg/kg/injection, schedule: Q01DX007 (ip), vehicle: carboxymethylcellulose (CMC)
[2] = dose: 222.0 mg/kg/injection, schedule: Q01DX007 (ip), vehicle: carboxymethylcellulose (CMC)
[3] = dose: 333.0 mg/kg/injection, schedule: Q01DX007 (ip), vehicle: carboxymethylcellulose (CMC)

Structure (SMILES): C[C@H]1C[C@@H]2[C@H](C(=O)C[C@@]3(C)[C@H]2CC[C@]3(O)C(=O)CO)[C@@]2(C)C=CC(=O)C=C12
- T/C (dose: 221.0 mg/kg/injection, schedule: Q01DX007 (sc), vehicle: steriod suspending solution): 41 % of control
- T/C (dose: 330.0 mg/kg/injection, schedule: Q01DX007 (sc), vehicle: steriod suspending solution): 43 % of control and 65 % of control
- T/C (dose: 739.0 mg/kg/injection, schedule: Q01DX007 (sc), vehicle: steriod suspending solution): 13 % of control

Structure (SMILES): CC1=C(/C=C/C(C)=N/NC(N)=S)C(C)(C)CCC1
- T/C (dose: 20.0 mg/kg/injection, schedule: Q01DX007 (ip), vehicle: other): 48 % of control and 66 % of control

Structure (SMILES): CN(C)c1ccc(/C=C/c2ccnc3ccccc23)cc1
- T/C (dose: 15.5 mg/kg/injection, schedule: Q01DX007 (ip), vehicle: water): 82 % of control
- T/C (dose: 62.0 mg/kg/injection, schedule: Q01DX007 (ip), vehicle: carboxymethylcellulose (CMC)): 86 % of control

Structure (SMILES): CC(CN)CCC(C)(O)C(N)=O (stereo not given)
- T/C (dose: 83.0 mg/kg/injection, schedule: Q#A X014 (ip), vehicle: methylcellulose (MC)): 63 % of control
- T/C (dose: 125.0 mg/kg/injection, schedule: Q#A X014 (ip), vehicle: methylcellulose (MC)): 49 % of control
- T/C (dose: 187.5 mg/kg/injection, schedule: Q#A X014 (ip), vehicle: methylcellulose (MC)): 47 % of control

Structure (SMILES): CCNc1nncs1
- T/C (dose: 13.7 mg/kg/injection, schedule: Q01DX007 (ip), vehicle: carboxymethylcellulose (CMC)): 59 % of control
- T/C (dose: 16.37 mg/kg/injection, schedule: Q01DX007 (ip), vehicle: carboxymethylcellulose (CMC)): 97 % of control and 108 % of control
- T/C (dose: 27.5 mg/kg/injection, schedule: Q01DX007 (ip), vehicle: carboxymethylcellulose (CMC)): 58 % of control
- T/C (dose: 32.75 mg/kg/injection, schedule: Q01DX007 (ip), vehicle: carboxymethylcellulose (CMC)): 75 % of control and 98 % of control
- T/C (dose: 55.0 mg/kg/injection, schedule: Q01DX007 (ip), vehicle: carboxymethylcellulose (CMC)): 47 % of control
- T/C (dose: 110.0 mg/kg/injection, schedule: Q01DX007 (ip), vehicle: carboxymethylcellulose (CMC)): 41 % of control
- T/C (dose: 131.0 mg/kg/injection, schedule: Q01DX007 (ip), vehicle: carboxymethylcellulose (CMC)): 46 % of control and 71 % of control

Structure (SMILES): CN=C(N)/N=C(\N)Nc1cc2ccccc2c2ccccc12
- T/C (dose: 1.0 mg/kg/injection, schedule: Q01DX007 (ip), vehicle: acid diluted with saline): 89 % of control
- T/C (dose: 2.0 mg/kg/injection, schedule: Q01DX007 (ip), vehicle: acid diluted with saline): 93 % of control
- T/C (dose: 4.0 mg/kg/injection, schedule: Q01DX007 (ip), vehicle: acid diluted with saline): 92 % of control

Structure (SMILES): CNC(C)C(O)c1ccccc1 (stereo not given)
- T/C (dose: 133.0 mg/kg/injection, schedule: Q01DX007 (ip), vehicle: saline): 78 % of control
- T/C (dose: 200.0 mg/kg/injection, schedule: Q01DX007 (ip), vehicle: saline): 60 % of control

Structure (SMILES): O=C(O)c1ccccc1C(=O)OCc1ccccc1
- T/C [1]: 72 % of control

Structure (SMILES): CCCCNP(=O)(N1CC1)N1CC1
- T/C (dose: 0.15 mg/kg/injection, schedule: Q#A X014 (ip), vehicle: saline): 18 % of control
- T/C (dose: 0.25 mg/kg/injection, schedule: Q#A X014 (ip), vehicle: saline): 7 % of control

Structure (SMILES): CC(C)([NH-])CO.CC(C)([NH-])CO.[Cl][Cd][Cl]
- T/C (dose: 1.0 mg/kg/injection, schedule: Q#A X014 (ip), vehicle: methylcellulose (MC)): 50 % of control
- T/C (dose: 1.0 mg/kg/injection, schedule: Q#A X014 (ip), vehicle: other): 91 % of control
- T/C (dose: 1.5 mg/kg/injection, schedule: Q#A X014 (ip), vehicle: methylcellulose (MC)): 113 % of control
- T/C (dose: 1.5 mg/kg/injection, schedule: Q#A X014 (ip), vehicle: other): 104 % of control
- T/C (dose: 1.75 mg/kg/injection, schedule: Q#A X014 (ip), vehicle: methylcellulose (MC)): 70 % of control
- T/C (dose: 2.5 mg/kg/injection, schedule: Q#A X014 (ip), vehicle: methylcellulose (MC)): 85 % of control
- T/C (dose: 2.5 mg/kg/injection, schedule: Q#A X014 (ip), vehicle: other): 85 % of control
- T/C (dose: 2.65 mg/kg/injection, schedule: Q#A X014 (ip), vehicle: methylcellulose (MC)): 73 % of control
- T/C (dose: 3.75 mg/kg/injection, schedule: Q#A X014 (ip), vehicle: methylcellulose (MC)): 73 % of control
- T/C (dose: 3.75 mg/kg/injection, schedule: Q#A X014 (ip), vehicle: other): 102 % of control
- T/C (dose: 4.0 mg/kg/injection, schedule: Q#A X014 (ip), vehicle: methylcellulose (MC)): 49 % of control
- T/C (dose: 6.0 mg/kg/injection, schedule: Q#A X014 (ip), vehicle: methylcellulose (MC)): 36 % of control

Structure (SMILES): Nc1ccc(C(=O)NCCCC(=O)O)cc1
- T/C (dose: 125.0 mg/kg/injection, schedule: Q01DX007 (ip), vehicle: water): 101 % of control
- T/C (dose: 500.0 mg/kg/injection, schedule: Q01DX007 (ip), vehicle: water): 90 % of control

Structure (SMILES): O=C(NNC(=O)c1cccc2ccccc12)c1cc(Br)ccc1Br
- T/C [2]: 53 % of control
- T/C [3]: 65 % of control
- T/C [1]: 26 % of control
- T/C (dose: 750.0 mg/kg/injection, schedule: Q01DX007 (ip), vehicle: carboxymethylcellulose (CMC)): 37 % of control

Structure (SMILES): N=[N+]=CC(=O)OCC(N)C(=O)O (stereo not given)
- T/C (dose: 0.25 mg/kg/injection, schedule: Q#A X014 (ip), vehicle: carboxymethylcellulose (CMC)): 61 % of control
- T/C (dose: 0.5 mg/kg/injection, schedule: Q#A X014 (ip), vehicle: carboxymethylcellulose (CMC)): 35 % of control
- T/C (dose: 0.57 mg/kg/injection, schedule: Q#A X014 (ip), vehicle: carboxymethylcellulose (CMC)): 65 % of control
- T/C (dose: 0.92 mg/kg/injection, schedule: Q01DX007 (ip), vehicle: carboxymethylcellulose (CMC)): 33 % of control
- T/C (dose: 1.0 mg/kg/injection, schedule: Q#A X014 (ip), vehicle: carboxymethylcellulose (CMC)): 25 % of control
- T/C (dose: 1.15 mg/kg/injection, schedule: Q01DX007 (ip), vehicle: carboxymethylcellulose (CMC)): 39 % of control
- T/C (dose: 1.15 mg/kg/injection, schedule: Q#A X014 (ip), vehicle: carboxymethylcellulose (CMC)): 7 % of control
- T/C (dose: 1.53 mg/kg/injection, schedule: Q01DX007 (ip), vehicle: carboxymethylcellulose (CMC)): 30 % of control
- T/C (dose: 2.1 mg/kg/injection, schedule: Q01DX007 (ip), vehicle: carboxymethylcellulose (CMC)): 11 % of control and 12 % of control
- T/C (dose: 2.3 mg/kg/injection, schedule: Q01DX007 (ip), vehicle: carboxymethylcellulose (CMC)): 14 % of control
- T/C (dose: 2.3 mg/kg/injection, schedule: Q#A X014 (ip), vehicle: carboxymethylcellulose (CMC)): 3 % of control
- T/C (dose: 4.2 mg/kg/injection, schedule: Q01DX007 (ip), vehicle: carboxymethylcellulose (CMC)): 3 % of control and 7 % of control
- T/C (dose: 4.6 mg/kg/injection, schedule: Q#A X014 (ip), vehicle: carboxymethylcellulose (CMC)): 4 % of control
- T/C (dose: 6.3 mg/kg/injection, schedule: Q01DX007 (ip), vehicle: carboxymethylcellulose (CMC)): 2 % of control and 5 % of control

Structure (SMILES): Nc1ncnc2[nH]ncc12
- T/C (dose: 0.55 mg/kg/injection, schedule: Q#A X014 (ip), vehicle: carboxymethylcellulose (CMC)): 74 % of control
- T/C (dose: 1.1 mg/kg/injection, schedule: Q#A X014 (ip), vehicle: carboxymethylcellulose (CMC)): 79 % of control
- T/C (dose: 2.2 mg/kg/injection, schedule: Q#A X014 (ip), vehicle: carboxymethylcellulose (CMC)): 76 % of control
- T/C (dose: 4.4 mg/kg/injection, schedule: Q#A X014 (ip), vehicle: carboxymethylcellulose (CMC)): 87 % of control

Structure (SMILES): CC(=O)OCC(=O)C1(O)C(C)CC2C3C=C(C)C4=Cc5c(cnn5-c5ccccc5)CC4(C)C3C(O)CC21C (stereo not given)
- T/C (dose: 0.16 mg/kg/injection, schedule: Q01DX007 (sc), vehicle: steriod suspending solution): 115 % of control
- T/C (dose: 0.25 mg/kg/injection, schedule: Q01DX007 (sc), vehicle: steriod suspending solution): 39 % of control and 42 % of control
- T/C (dose: 8.0 mg/kg/injection, schedule: Q01DX007 (sc), vehicle: steriod suspending solution): 15 % of control

Structure (SMILES): O=C1c2cc(Cl)ccc2-c2c(Cl)cc(Cl)cc21
- T/C (dose: 25.0 mg/kg/injection, schedule: Q01DX007 (ip), vehicle: methylcellulose (MC)): 100 % of control
- T/C (dose: 43.0 mg/kg/injection, schedule: Q01DX007 (ip), vehicle: carboxymethylcellulose (CMC)): 76 % of control
- T/C (dose: 66.0 mg/kg/injection, schedule: Q01DX007 (ip), vehicle: carboxymethylcellulose (CMC)): 65 % of control
- T/C (dose: 98.0 mg/kg/injection, schedule: Q01DX007 (ip), vehicle: carboxymethylcellulose (CMC)): 44 % of control and 50 % of control
- T/C (dose: 147.0 mg/kg/injection, schedule: Q01DX007 (ip), vehicle: carboxymethylcellulose (CMC)): 36 % of control
- T/C (dose: 149.0 mg/kg/injection, schedule: Q01DX007 (ip), vehicle: carboxymethylcellulose (CMC)): 59 % of control
- T/C [2]: 30 % of control and 44 % of control
- T/C (dose: 222.0 mg/kg/injection, schedule: Q01DX007 (ip), vehicle: other): 48 % of control
- T/C [3]: 25 % of control and 32 % of control
- T/C (dose: 333.0 mg/kg/injection, schedule: Q01DX007 (ip), vehicle: other): 39 % of control
- T/C [1]: 22 % of control
- T/C (dose: 750.0 mg/kg/injection, schedule: Q01DX007 (ip), vehicle: other): 27 % of control

Source: PubChem BioAssay AID342 (DTP/NCI, 2004)
